This is an account of results in paper PMC10373114, “CDK2 regulates collapsed replication fork repair in CCNE1-amplified ovarian cancer cells via homologous recombination” (NAR Cancer, 2023).

For one series, the system named is kinases tested (n = 468). Briefly: KINOMEscan kinome selectivity. The class given is binding. Conditions: fraction of kinases with <10% of control at 3 μM among 468 kinases tested.
The target of a further series is CDK7/CycH1/MNAT1 (Homo sapiens, UniProt P50613). Briefly: ATP-competition caliper enzyme assay. The class given is biochemical. Particulars: 1 mM ATP.
CDK7/CycH1/MNAT1, sequence (P50613 whole entry): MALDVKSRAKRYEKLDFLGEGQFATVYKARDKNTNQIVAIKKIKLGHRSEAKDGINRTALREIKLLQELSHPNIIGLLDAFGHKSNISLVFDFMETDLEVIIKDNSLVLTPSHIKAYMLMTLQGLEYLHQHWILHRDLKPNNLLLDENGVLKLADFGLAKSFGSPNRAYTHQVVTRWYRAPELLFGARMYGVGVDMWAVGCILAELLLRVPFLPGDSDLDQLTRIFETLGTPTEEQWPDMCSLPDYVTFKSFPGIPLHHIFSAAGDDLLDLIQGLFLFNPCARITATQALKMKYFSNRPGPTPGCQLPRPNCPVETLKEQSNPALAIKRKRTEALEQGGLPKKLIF
CDK7/CycH1/MNAT1, sequence (P51946 whole entry partner): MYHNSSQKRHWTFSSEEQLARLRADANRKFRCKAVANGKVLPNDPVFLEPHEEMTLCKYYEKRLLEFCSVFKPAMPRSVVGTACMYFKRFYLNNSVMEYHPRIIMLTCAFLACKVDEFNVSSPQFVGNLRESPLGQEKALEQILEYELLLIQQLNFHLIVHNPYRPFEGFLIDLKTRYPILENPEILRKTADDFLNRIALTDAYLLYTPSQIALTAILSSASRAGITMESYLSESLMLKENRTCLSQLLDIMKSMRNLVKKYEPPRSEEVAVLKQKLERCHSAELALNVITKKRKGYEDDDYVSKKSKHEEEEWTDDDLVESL
CDK7/CycH1/MNAT1, sequence (P51948 whole entry partner): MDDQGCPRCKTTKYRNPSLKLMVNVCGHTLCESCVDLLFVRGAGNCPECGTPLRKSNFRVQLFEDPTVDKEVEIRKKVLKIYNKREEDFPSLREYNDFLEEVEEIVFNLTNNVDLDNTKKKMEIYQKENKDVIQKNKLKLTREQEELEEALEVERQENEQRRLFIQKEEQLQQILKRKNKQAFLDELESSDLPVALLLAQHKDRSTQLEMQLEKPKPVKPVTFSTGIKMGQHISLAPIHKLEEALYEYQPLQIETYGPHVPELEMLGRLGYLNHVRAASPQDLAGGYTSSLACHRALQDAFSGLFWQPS
The target of a further series is T1, CDK7/CycH1 (Homo sapiens, UniProt P50613).
T1 construct: expressed in transfected cells; host or cells: HEK293
T1 sequence (P50613 whole entry): as the sequence (P50613 whole entry) above
T1 sequence (P51946 whole entry partner): as the sequence (P51946 whole entry partner) above
Briefly: NanoBRET target engagement assay. Type of series: binding. Conditions: HEK-293T cells transfected with CDK complex. As to the method: HEK293 cells were prepared to a final concentration of 100 000 cells/ml in 1% fetal bovine serum (FBS) Opti-MEM. Transfection mixtures were prepared with 1 μg of plasmid encoding NanoLuc-fused CDK and 9 μg of plasmid encoding cyclin, diluted in 1 ml Opti-MEM. FuGENE HD (Promega) was added to transfection mixture at a ratio of 30 μl/1 ml. After liposome formation, the lipid:DNA complex was added at a 1:20 ratio to HEK293 cells in suspension. Cells were plated in 384-well tissue culture plates and incubated overnight (20–30 h) at 37°C/5% CO2. Compounds were prepared from DMSO stock solutions and added to cell plates with a final top concentration of 10 000 nM. NanoBRET tracer solution was prepared from 100X tracer solution. For CDK1/cyclin B1, CDK9/cyclin T1, and CDK2/cyclin E1 assays, tracer K10 was used at a final concentration of 0.5 μM, 0.250 μM, and 0.125 μM, respectively. For CDK4/cyclin D1, and CDK6/cyclin D3, tracer K7 was used at a final concentration of 0.0625 μM. For CDK7/cyclin H1, tracer K7 was used at a final concentration of 0.5 μM. The plate was incubated at 37°C/5% CO2 for 2 h. NanoBRET substrate solution was prepared 15 min prior to the assay endpoint using serum-free OptiMEM. […] The plate was then shaken and read using the Perkin Elmer Envision plate reader. The donor emission was measured at 450 nm, followed by acceptor emission at 610 nm. […]

The next series deals with MCF-7 cells. Briefly: CyQuant proliferation assay. Type of series: cell-based. Conditions: proliferation, 5 days, CyQuant; mean of two independent replicates; read-out: MCF-7 IC50. As to the method: (§1) OVCAR-3, COV644, or MCF-7 cells were seeded at 1000 cells/well in 384-well black, clear bottom plates and allowed to adhere overnight at 37°C/5% CO2. The following day, cells were treated with compound in a 10-point dose response, 1:4 dilutions. After 5 days of incubation, CyQuant Direct Proliferation Assay was performed according to the manufacturer's instructions. Data were processed with GraphPad Prism using a four-parameter fit to calculate IC50.

The subject of a further series is OVCAR-3 cells. Kind of series: CyQuant proliferation assay. The class given is cell-based, human. Conditions: proliferation, 5 days, mean of two independent replicates. As to the method:
as §1

The test system of the next series is OVCAR-3 xenografts. Briefly: OVCAR-3 xenograft tumor growth inhibition. The class given is in vivo, NOD-SCID mice. On the procedure:
Female NOD-SCID mice were purchased from Shanghai Lingchang BioTech Co., Ltd at 6–8 weeks old. Mice were housed in solid bottom polycarbonate ventilated cages at a temperature of 20–26°C in 40–70% humidity. Mice were kept on a 12-h light,
Twelve-hour dark cycle with regularly changed 100% filtered air. Municipal water and rodent diet were provided ad libitum. The general health of the animals was monitored through gross observation, regular body weight measurement, and monitoring of food and water intake. All procedures related to animal handling, care, and treatment were performed according to the protocol approved by the Institutional Animal Care and Use Committee of Shanghai Chempartner following the guidance of the Association for Assessment and Accreditation of Laboratory Animal Care (AAALAC).
OVCAR-3 cells were passaged through mice once, and a cell line was rederived from the tumor, named ‘T2A.’ OVCAR-3 T2A cells were cultured in RPMI 1640 media supplemented with 20% FBS and 0.01 mg/ml insulin. To establish the OVCAR-3 xenograft model, 6 × 10^6 cells per mouse were implanted subcutaneously into the right hind flank of NOD-SCID female mice. Cells were suspended in 50% Matrigel and 50% RPMI 1640 media serum free media prior to implantation.
In OVCAR-3 tumor growth inhibition studies, animals were randomized and treatment began when tumors reached ∼200 mm^3 in size (n = at least eight/group). […] Etoposide was prepared in 5% DMSO + 40% PEG300 + 5%Tween 80 + 50%dd water and dosed intraperitoneally QD at 1.25 mg/kg for 3 days for each week of the study. Olaparib was prepared in 10% HP-ß-CD in water and dosed intraperitoneally QD at 50 mg/kg. Tumor sizes and body weight were measured twice weekly. Tumor sizes were measured in two dimensions using a caliper, and the volume (mm^3) was calculated using the formula: V = 0.5 a x b^2 where a and b are the long and short diameters of the tumor, respectively.

Series [1] is described as follows: Pharmacokinetics (plasma concentrations after oral dose). The class given is in vivo, NOD-SCID mice. Particulars: single p.o. dose. From the text:
(A) Chemical structures of BLU2256. […]
family members. Error bars represent SD of at least duplicate independent experiments. (D) NanoBret assessment of BLU2256 target engagement in indicated CDK complexes expressed in HEK-293 cells. Error bars represent SD of at least duplicate independent experiments. (E) Dose-response curve for pRb T821/826 […]
Error bars represent SD of at least duplicate independent experiments. (F) Dose-response curve for pLamin S22 inhibition by BLU1851 in OVCAR-3 and COV644 cells. Error bars represent SD of duplicate independent experiments. (G) Do se -response curves in MCF-7, OVCAR-3 cells. Cells were treated with a 10- point dose response of indicated compounds and incubated for 5 days before CyQuant assay was performed. […]
Contemporaneously, cells were transfected with a 3X-FLAG donor plasmid plus a plasmid containing Cas9 and a single guide RNA (sgRNA), scramble control (sgScr), or an sgRNA targeting beta- actin (sgACTB). […] The percent body weight change is calculated by normalizing to day 0 per treatment group. […] (M) Quantification of Western blot for pRb S807/811 normalized individually to actin and then to vehicle group to calculate % inhibition. […]
(N) Relative body weight over treatment time. The percent body weight change is calculated by normalizing to day 0 per treatment group. […] The percent body weight change is calculated by normalizing to day 0 per treatment group. […]

The structures appear in SMILES notation.

Broadly, the IC50 is the concentration that inhibits the measured activity by half. As for `CC(C)(O)Cn1cc(-c2nc(Nc3ccc(S(N)(=O)=O)cc3F)ncc2C(F)(F)F)cn1` [BLU2256], in the series with kinases tested (n = 468), the “Kinome S (10)” value amounted to 0.040. The IC50 at CDK7/CycH1/MNAT1 is over 6670 nM; against CDK7/CycH1, 4420 nM; in the series on MCF-7 cells, 1280 nM; in the series on OVCAR-3 cells, 82.5 nM. Also, the tumor growth inhibition entry in the series on OVCAR-3 xenografts (3 mg/kg QD PO) was “sub-efficacious with minor tumor growth inhibition”; in the series with OVCAR-3 xenografts (5 mg/kg BID PO) it was “efficacious dose, inducing tumor stasis”; in the series on OVCAR-3 xenografts (dose titration, PO QD for 3 weeks), “dose-dependent tumor growth inhibition”. The body weight result in the series with OVCAR-3 xenografts (dose titration, PO) is recorded as “without a change in body weight”. Also, the “inhibition of RB1 phosphorylation in tumors” value with OVCAR-3 xenografts (on-target activity) is “dose and time-dependent”. The “pharmacokinetics compared with BLU1851” value in series [1] was “superior pharmacokinetics”.
